Measured values taken from patent publication US20230091225A1, “Bifunctional chimeric heterocyclic compounds for targeted degradation of androgen receptors and use thereof” (HINOVA PHARMACEUTICALS INC., priority 2019, published 2023).
Like-named read-outs stand apart in the source and are kept apart here.

Assays:
Assay type in all cases: cell-based
LNCaP/AR cells = experiment: Inhibition of proliferation of LNCaP/AR prostate cancer cells (CCK-8)
androgen receptor (AR) [1] = target: T1, androgen receptor (AR) (Homo sapiens, UniProt P10275); experiment: Degradation of androgen receptor (AR) protein in VCaP cells by ELISA
T1 sequence (P10275 1-920): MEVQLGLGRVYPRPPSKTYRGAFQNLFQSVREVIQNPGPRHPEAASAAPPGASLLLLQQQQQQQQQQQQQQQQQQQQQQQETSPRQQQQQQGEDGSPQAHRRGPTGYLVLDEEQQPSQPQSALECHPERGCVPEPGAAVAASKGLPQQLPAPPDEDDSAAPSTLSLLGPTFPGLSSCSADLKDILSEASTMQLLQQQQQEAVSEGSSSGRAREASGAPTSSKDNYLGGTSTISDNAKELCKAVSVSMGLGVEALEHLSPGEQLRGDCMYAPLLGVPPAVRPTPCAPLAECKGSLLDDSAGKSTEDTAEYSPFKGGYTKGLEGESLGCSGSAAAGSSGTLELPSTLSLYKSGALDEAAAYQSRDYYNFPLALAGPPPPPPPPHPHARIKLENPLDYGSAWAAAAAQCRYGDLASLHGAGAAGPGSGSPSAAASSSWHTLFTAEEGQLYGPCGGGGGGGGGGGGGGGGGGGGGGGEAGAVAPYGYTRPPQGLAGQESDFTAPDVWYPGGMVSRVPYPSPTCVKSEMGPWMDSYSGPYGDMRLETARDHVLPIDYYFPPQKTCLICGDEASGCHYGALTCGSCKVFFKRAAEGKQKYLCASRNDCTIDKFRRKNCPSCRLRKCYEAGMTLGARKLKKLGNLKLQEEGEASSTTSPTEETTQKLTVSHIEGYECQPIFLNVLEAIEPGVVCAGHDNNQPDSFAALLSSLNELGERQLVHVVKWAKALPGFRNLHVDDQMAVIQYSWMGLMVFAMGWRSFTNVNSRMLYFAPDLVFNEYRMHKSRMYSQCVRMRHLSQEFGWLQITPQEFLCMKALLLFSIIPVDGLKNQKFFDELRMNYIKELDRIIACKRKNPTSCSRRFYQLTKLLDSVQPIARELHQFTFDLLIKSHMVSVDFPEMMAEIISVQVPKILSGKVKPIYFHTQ

androgen receptor (AR) [2] = target: T1, androgen receptor (AR); experiment: Degradation of androgen receptor (AR) protein in VCaP cells by Western blot; settings: percentage of degraded AR at 100 nM, VCaP cells, 16 h
In short: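 AR and β-actin levels were read by Western blot with ECL detection, loading 30 μg lysate protein per well. Before lysis, VCaP cells seeded at 5×10^5/well and grown overnight were exposed to compound for 16 h, two wells per concentration, keeping DMSO at 0.1%.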

[3] = 144 h, proliferation of LNCap/AR cells, 6 days, CCK-8, read-out: IC50

Row | IC50 (LNCaP/AR cells; [3]) [µM] | inhibition at 0.1 µM (androgen receptor (AR) [2]) [%] | Compound | IC50 (LNCaP/AR cells; LNCaP/AR, 144 h) [µM] | other results
1 | > 1 | < 25 | N#Cc1ccc(O[C@H]2CC[C@H](N3Cc4nc(N5CCC(OC6CCN(c7cccc8c7C(=O)N(C7CCC(=O)NC7=O)C8=O)CC6)CC5)ccc4C3=O)CC2)cc1Cl (some centres unmarked) [Compound 59, 2-chloro-4-(((1r,4r)-4-(2-(4-((1-(2-(2,6-dioxopiperidin-3-yl)-1,3-dioxoisoindolin-4-yl)piperidine-4-yl)oxy)piperidin-1-yl)-5-oxo-5H-pyrrolo[3,4-b]pyridin-6(7H)-yl)cyclohexyl)oxy)benzonitrile] |  | inhibition at 0.1 µM (androgen receptor (AR) [1]; percentage of degraded AR at 100 nM, VCaP cells, 16 h, ELISA, read-out: % degradation): < 25%
2 | 0.1 to 0.5 | < 25 | CC1(C)[C@H](Oc2ccc(C#N)c(Cl)c2)C(C)(C)[C@H]1N1Cc2cc(N3CCC(CN4CCN(c5ccc6c(c5)C(=O)N(C5CCC(=O)NC5=O)C6=O)CC4)CC3)ccc2C1=O (some centres unmarked) [Compound 249] |  | 
3 | 0.1 to 0.5 | 25 to 49 | CC1(C)[C@H](Oc2ccc(C#N)c(Cl)c2)C(C)(C)[C@H]1N1Cc2cc(N3CCC(CN4CCN(c5cc6c(cc5F)C(=O)N(C5CCC(=O)NC5=O)C6)CC4)CC3)ccc2C1=O (some centres unmarked) [Compound 251] |  | 

Second part, the compound before the results:

Row | Compound | IC50 (LNCaP/AR cells; [3]) [µM] | inhibition at 0.1 µM (androgen receptor (AR) [2]) [%] | IC50 (LNCaP/AR cells; LNCaP/AR, 144 h) [µM] | other results
4 | N#Cc1ccc(O[C@H]2CC[C@H](NC(=O)c3ccc(N4CCC(NC5CCN(c6cc7c(cc6F)C(=O)N(C6CCC(=O)NC6=O)C7=O)CC5)CC4)cc3)CC2)cc1Cl (some centres unmarked) [Compound 219, N-((1r,4r)-4-(3-chloro-4-cyanophenoxy)cyclohexyl)-4-(4-((1-(2-(2,6-dioxopiperidin-3-yl)-6-fluoro-1,3-dioxoisoindolin-5-yl)piperidine-4-yl)amino)piperidin-1-yl)benzamide] |  | 25 to 49 | 0.5 to 1 | 
5 | CC1(C)[C@H](Oc2ccc(C#N)c(Cl)c2)C(C)(C)[C@H]1N1Cc2cc(N3CCC(CN4CCN(c5ccc6c(c5)CN(C5CCC(=O)NC5=O)C6=O)CC4)CC3)ccc2C1=O (some centres unmarked) [Compound 248] |  | < 25 | 0.1 to 0.5 | 
6 | CC1(C)[C@H](Oc2ccc(C#N)c(Cl)c2)C(C)(C)[C@H]1N1Cc2cc(N3CCC(CN4CCN(c5cc6c(cc5F)CN([C@@H]5CCC(=O)NC5=O)C6=O)CC4)CC3)ccc2C1=O [Compound 250] |  |  |  | IC50 (LNCaP/AR cells; proliferation of LNCap/AR cells, 6 days, CCK-8, read-out: IC50): 0.1 to 0.5 µM; % degradation (androgen receptor (AR) [1]): D (key: A: >80%; B: 79%-50%; C: 49%-25%; D: <25%); % degradation (androgen receptor (AR) [2]): D (<25%)
